Measurements as given in ChEMBL document CHEMBL1275583, “First report of KPC-2-producing Klebsiella pneumoniae strains in Brazil” (2009).
In brackets after ≈: the same amount, converted by molar mass.

Assays:
Klebsiella pneumoniae [1] = experiment: Antibacterial activity against Klebsiella pneumoniae urine isolate A28009 PFGE pattern A expressing KPC-2, TEM-1, SHV-11, CTX-M-2 beta-lactamase by agar dilution method in presence of Tazobactam; assay type: functional
Klebsiella pneumoniae [2] = experiment: Antibacterial activity against Klebsiella pneumoniae blood isolate A28006 PFGE pattern A expressing KPC-2, TEM-1, SHV-11, CTX-M-2 beta-lactamase by agar dilution method in presence of Tazobactam; assay type: functional
Klebsiella pneumoniae [3] = experiment: Antibacterial activity against Klebsiella pneumoniae urine isolate A28011 PFGE pattern A expressing KPC-2, CTX-M-2 beta-lactamase by agar dilution method in presence of Tazobactam; assay type: functional
Klebsiella pneumoniae [4] = experiment: Antibacterial activity against Klebsiella pneumoniae blood isolate A28008 PFGE pattern A expressing KPC-2, TEM-1, SHV-11, CTX-M-2 beta-lactamase by agar dilution method in presence of Tazobactam; assay type: functional
Escherichia coli [5] = experiment: microbe, parasite or virus in culture; conditions: K-12 DH10B
Description: (§1) Antibacterial activity against Escherichia coli DH10B expressing KPC-2 CTX-M-2 by agar dilution method

Klebsiella pneumoniae [6] = experiment: Antibacterial activity against Klebsiella pneumoniae blood isolate A28008 PFGE pattern A expressing KPC-2, TEM-1, SHV-11, CTX-M-2 beta-lactamase by agar dilution method; assay type: functional
Escherichia coli [7] = experiment: Antibacterial activity against Escherichia coli DH10B by agar dilution method; assay type: functional; conditions: K-12 DH10B
Klebsiella pneumoniae [8] = experiment: Antibacterial activity against Klebsiella pneumoniae urine isolate A28009 PFGE pattern A expressing KPC-2, TEM-1, SHV-11, CTX-M-2 beta-lactamase by agar dilution method; assay type: functional
Klebsiella pneumoniae [9] = experiment: Antibacterial activity against Klebsiella pneumoniae urine isolate A28011 PFGE pattern A expressing KPC-2 CTX-M-2 beta-lactamase by agar dilution method; assay type: functional
Klebsiella pneumoniae [10] = experiment: Antibacterial activity against Klebsiella pneumoniae blood isolate A28006 PFGE pattern A expressing KPC-2, TEM-1, SHV-11, CTX-M-2 beta-lactamase by agar dilution method; assay type: functional
Escherichia coli [11] = conditions: K-12 DH10B
Description: as §1

Klebsiella pneumoniae [12] = experiment: Antibacterial activity against Klebsiella pneumoniae blood isolate A28006 PFGE pattern A expressing KPC-2, TEM-1, SHV-11, CTX-M-2 beta-lactamase by Etest method; assay type: functional
Klebsiella pneumoniae [13] = experiment: Antibacterial activity against Klebsiella pneumoniae blood isolate A28008 PFGE pattern A expressing KPC-2, TEM-1, SHV-11, CTX-M-2 beta-lactamase by Etest method; assay type: functional
Escherichia coli [14] = experiment: Antibacterial activity against Escherichia coli DH10B expressing KPC-2 CTX-M-2 by Etest method; assay type: functional; conditions: K-12 DH10B
Escherichia coli [15] = experiment: Antibacterial activity against Escherichia coli DH10B by Etest method; assay type: functional; conditions: K-12 DH10B
Klebsiella pneumoniae [16] = experiment: Antibacterial activity against Klebsiella pneumoniae urine isolate A28011 PFGE pattern A expressing KPC-2, CTX-M-2 beta-lactamase by Etest method; assay type: functional
Klebsiella pneumoniae [17] = experiment: Antibacterial activity against Klebsiella pneumoniae urine isolate A28009 PFGE pattern A expressing KPC-2, TEM-1, SHV-11, CTX-M-2 beta-lactamase by Etest method; assay type: functional

| Molecule | MIC (Escherichia coli [5]) [µg/mL] | MIC (Klebsiella pneumoniae [6]) [µg/mL] | MIC (Escherichia coli [7]) [µg/mL] | MIC (Klebsiella pneumoniae [8]) [µg/mL] | MIC (Klebsiella pneumoniae [9]) [µg/mL] | MIC (Klebsiella pneumoniae [10]) [µg/mL] | also measured |
| --- | --- | --- | --- | --- | --- | --- | --- |
| CCN1CCN(C(=O)N[C@@H](C(=O)N[C@@H]2C(=O)N3[C@@H]2SC(C)(C)[C@@H]3C(=O)O)c2ccccc2)C(=O)C1=O [PIPERACILLIN] | – | – | – | – | – | – | MIC (Klebsiella pneumoniae [1]): 16 µg/mL; MIC (Klebsiella pneumoniae [2]): 16 µg/mL; MIC (Klebsiella pneumoniae [3]): 8 µg/mL; MIC (Klebsiella pneumoniae [4]): 16 µg/mL |
| CO[C@@]1(NC(=O)Cc2cccs2)C(=O)N2C(C(=O)O)=C(COC(N)=O)CS[C@@H]21 [CEFOXITIN] | 8 (≈ 18.7 µM) | 16 (≈ 37.4 µM) | 4 (≈ 9.36 µM) | 64 (≈ 150 µM) | > 256 | 32 (≈ 74.9 µM) | – |
| C[C@H]1[C@H](NC(=O)/C(=N\OC(C)(C)C(=O)O)c2csc(N)n2)C(=O)N1S(=O)(=O)O [AZTREONAM] | 32 (≈ 73.5 µM) | 64 (≈ 147 µM) | – | > 256 | > 256 | – | – |
| CO/N=C(\C(=O)N[C@@H]1C(=O)N2C(C(=O)O)=C(CSc3nc(=O)c(O)nn3C)CS[C@H]12)c1csc(N)n1 [CEFTRIAXONE] | > 256 | > 256 | 0.06 (≈ 0.108 µM) | > 256 | > 256 | > 256 | – |
| POLYMYXIN B | – | 2 | 0.38 | 2 | 2 | 2 | MIC (Escherichia coli [11]): 0.38 µg/mL |
| CC(C)(O/N=C(\C(=O)N[C@@H]1C(=O)N2C(C(=O)[O-])=C(C[n+]3ccccc3)CS[C@H]12)c1csc(N)n1)C(=O)O [CEFTAZIDIME] | 4 (≈ 7.32 µM) | 16 (≈ 29.3 µM) | 0.25 (≈ 0.457 µM) | 32 (≈ 58.5 µM) | 64 (≈ 117 µM) | 16 (≈ 29.3 µM) | – |
| C[C@@H](O)[C@H]1C(=O)N2C(C(=O)O)=C(SCCNC=N)C[C@H]12 [IMIPENEM ANHYDROUS] | 2 (≈ 6.68 µM) | 32 (≈ 107 µM) | – | 32 (≈ 107 µM) | 16 (≈ 53.4 µM) | 4 (≈ 13.4 µM) | – |
| GENTAMICIN | – | 1 | 0.12 | 1 | 1 | 1 | MIC (Escherichia coli [11]): 0.12 µg/mL |
| CN(C)c1cc(NC(=O)CNC(C)(C)C)c(O)c2c1C[C@H]1C[C@H]3[C@H](N(C)C)C(O)=C(C(N)=O)C(=O)[C@@]3(O)C(O)=C1C2=O [TIGECYCLINE] | – | – | – | – | – | – | MIC (Klebsiella pneumoniae [12]): 0.38 µg/mL (≈ 0.649 µM); MIC (Klebsiella pneumoniae [13]): 0.38 µg/mL (≈ 0.649 µM); MIC (Escherichia coli [14]): 0.06 µg/mL (≈ 0.102 µM); MIC (Escherichia coli [15]): 0.06 µg/mL (≈ 0.102 µM); MIC (Klebsiella pneumoniae [16]): 0.5 µg/mL (≈ 0.854 µM); MIC (Klebsiella pneumoniae [17]): 0.38 µg/mL (≈ 0.649 µM) |
| CO/N=C(\C(=O)N[C@@H]1C(=O)N2C(C(=O)[O-])=C(C[N+]3(C)CCCC3)CS[C@H]12)c1csc(N)n1 | 2 (≈ 4.16 µM) | 32 (≈ 66.6 µM) | 0.25 (≈ 0.52 µM) | 64 (≈ 133 µM) | > 256 | 128 (≈ 266 µM) | – |
| C[C@@H](O)[C@H]1C(=O)N2C(C(=O)O)=C(S[C@@H]3CN[C@H](C(=O)N(C)C)C3)[C@H](C)[C@H]12 [MEROPENEM] | 0.5 (≈ 1.3 µM) | 4 (≈ 10.4 µM) | 0.25 (≈ 0.652 µM) | > 32 | > 32 | 32 (≈ 83.4 µM) | – |
| CO/N=C(\C(=O)N[C@@H]1C(=O)N2C(C(=O)O)=C(COC(C)=O)CS[C@H]12)c1csc(N)n1 [CEFOTAXIME] | 4 (≈ 8.78 µM) | > 256 | < 0.25 | > 256 | > 256 | > 256 | – |
